Test [1] deals with HLA-B*0702 transgenic mice. Kind of test: Vaccination of HLA-B*0702 transgenic mice (peptide + IC31), IFN-gamma ELISpot with spleen cells and CD8+ fraction. It is filed as in vivo, mouse. As to conditions: for Immunogenicity, peptide-specific IFN-gamma-producing cells, B*0702: HLA-B*0702 transgenic mice, splenocytes; for specific INF-γ producing T cells / HLA-B*0702 epitope in HLA-B*0702 transgenic mice (in words): peptide + IC31, whole spleen cells and CD8+ fraction. As to the method: (§1) Mouse splenocyte ELIspot assay for single cell IFN-gamma release ELISpot plates (MAHA S4510, Millipore, Germany) were rinsed with PBS (200 μl/well), coated with anti-mouse IFN-gamma mAb (clone R46A2; 100 μl/well of 5 μg/ml in 0.1 M NaHCO3, pH 9.2-9.5) and incubated overnight at 4° C. Plates were washed four times with PBS/0.1% Tween 20 and incubated with PBS/1% BSA (200 μl/well) at room temperature for 2 h to block nonspecific binding. Spleen cells from vaccinated mice were prepared and plated at 1×10^6-3×10^5 cells/well and incubated overnight at 37° C./5% CO2 either in the presence of the immunizing antigen (peptide), control peptides or with medium alone. Subsequently, plates were washed four times and incubated with biotinylated anti-mouse IFN-gamma mAb (clone AN18.17.24, 100 μl/well of 2 μg/ml in PBS/1% BSA) for 2 h at 37° C. After washing, streptavidin-peroxidase (Roche Diagnostics, Vienna, Austria) was added ( 1/5000 in PBS, 100 μl/well) and plates were incubated at room temperature for 2 additional hours. Subsequently, substrate was added to the washed plates (100 μl/well of a mixture of 10 ml 100 mM Tris pH 7.5 supplemented with 200 μl of 40 mg/ml DAB stock containing 50 μl of 80 mg/ml NiCl2 stock and 5 μl of 30% H2O2). The reaction was stopped after 20-30 minutes by washing the plates with tap water. Dried plates were evaluated with an ELISpot reader (BIOREADER 2000, BioSys, Karben, Germany).
Groups of 5 mice (HLA-A*0201-, HLA-DRB1*0401- and HLA-B*0702 transgenic mice, male, 8-14 weeks of age) were injected subcutaneous into the hind footpads with 100 μg of peptide +IC31 per mouse (50 μg per footpad). (PCT/EP01/12041, WO 02/32451 A1 and PCT/EP01/06433, WO 01/93905 A1; IC31 is a combination of the immunizer disclosed in WO 01/93905 and WO 02/32451).
6 days after vaccination single cell suspension of pooled spleens were prepared and additionally pure fractions of CD8+ in the case of A2 and B7 tg mice (CD8+ fraction for B7 mice containing 97% of CD8 and 1.5% of CD4 cells and for A2 tg mice 83% of CD8 and 8% of CD4 cells) and CD4+ for DR4tg mice (CD4+ fraction for DR4tg mice containing 98% of CD4 cells and 0.2% of CD8 cells) were separated from the spleen cell suspension using MACS separating kit (Miltenyi, Germany).

Test [2] concerns HLA-A*0201 transgenic mice. Description: Immunization of HLA-A*0201 transgenic mice (peptide + CpI), splenocyte IFN-gamma ELISpot. As to conditions: for immunogenicity in HLA-A*0201 transgenic mice (in words): Example II, IFN-gamma ELISpot of splenocytes; for Immunogenicity, peptide-specific IFN-gamma-producing cells, A*0201: HLA-A*0201 transgenic mice, splenocytes. It is filed as in vivo, mouse. As to the method:
(§2) Immunogenicity of synthetic HCV-derived peptides was tested in HLA-DRB1*0401- and HLA-A*0201-transgenic mice as follows: Groups of 3 mice (female, 8 weeks of age) were injected subcutaneously into the flank (in total 100 μg of peptide +30 μg oligodinucleotide CpI (Purimex, Göttingen, Germany) per mouse).
as §1
(§3) As summarized in Table 3, some peptides were either immunogenic (+, less than 100 peptide-specific cells among a million splenocytes) or even strongly immunogenic (++, more than 100 peptide-specific cells among a million splenocytes) in DR4- and/or A*0201-transgenic mice.

Test [3] has as its system HLA-DRB1*0401 transgenic mice. Kind of test: Immunization of HLA-DRB1*0401 transgenic mice (peptide + CpI), splenocyte IFN-gamma ELISpot. It is filed as in vivo, mouse. As to conditions: for immunogenicity in HLA-DRB1*0401 transgenic mice (in words): Example II, IFN-gamma ELISpot of splenocytes; for Immunogenicity, peptide-specific IFN-gamma-producing cells, DRB1*0401: HLA-DRB1*0401 transgenic mice, splenocytes. As to the method: as §2, §1, §3

Test [4] deals with HLA-DRB1*0101 (Homo sapiens, UniProt P01903+P01911, A100R/D57E/F55L/F60I/F76Y/I96L/L162R/M171V/P40L/Q125E/R42F/V115G/Y59C). Kind of test: Epitope capture / peptide binding, SDS-stability assay, soluble DRB1*0101. As to conditions: soluble HLA class II, individual peptide confirmed (Table 2).
In test [5] the target is HLA-DRB1*0401 (Homo sapiens, UniProt P01903+P01911, A100K/A169T/F76Y/I96L/K127E/L162R/M171V/N62H/P40V/Q125Y/R42H/S133A/S149N/S66Y/V115G/V209L/W38E). Description: Epitope capture / peptide binding, SDS-stability assay, soluble DRB1*0401. As to conditions: soluble HLA class II, individual peptide confirmed (Table 2).
The target of test [6] is HLA-DRB1*0404 (Homo sapiens, UniProt P01903+P01911, A100R/A169T/F76Y/I96L/K127E/L162R/M171V/N62H/P40V/Q125Y/R42H/S133A/S149N/S66Y/V209L/W38E). Description: Epitope capture / peptide binding, SDS-stability assay, soluble DRB1*0404. As to conditions: soluble HLA class II, individual peptide confirmed (Table 2).

Entries after “also recorded” stand apart in the source; their conditions may differ.

As to “SGMFDSSVLCECYDAGCAWYELTPAETSVRLRAY [Peptide 1562]”, in test [1], the “Immunogenicity, peptide-specific IFN-gamma-producing cells, B*0702” value (from here on “Immunogenicity … B*0702”) is listed as “+ (immunogenic (+, less than 100 peptide-specific cells among a million splenocytes))” and the “specific INF-γ producing T cells / HLA-B*0702 epitope in HLA-B*0702 transgenic mice (in words)” value is “HLA-B*0702 epitopes with T-cell activating capacity”.

Turning to “YLHAPTGSGKSTKVPVAYAAQGYKVLVLNPSVAATLGFGAY [Peptide 1552]”, in test [2], the “immunogenicity in HLA-A*0201 transgenic mice (in words)” value is “immunogenicity” and the “Immunogenicity, peptide-specific IFN-gamma-producing cells, A*0201” value is “+ (immunogenic (+, less than 100 peptide-specific cells among a million splenocytes))”. In test [1], the “Immunogenicity … B*0702” value is “+ (immunogenic (+, less than 100 peptide-specific cells among a million splenocytes))” and the “specific INF-γ producing T cells / HLA-B*0702 epitope in HLA-B*0702 transgenic mice (in words)” value is listed as “HLA-B*0702 epitopes with T-cell activating capacity”.

With LPALSTGLIHLHQNIVDVQYLYG [Peptide 1656], in test [3], the “immunogenicity in HLA-DRB1*0401 transgenic mice (in words)” value was “immunogenicity” and the “Immunogenicity, peptide-specific IFN-gamma-producing cells, DRB1*0401” value is reported as “+ (immunogenic (+, less than 100 peptide-specific cells among a million splenocytes))”.

With LPRRGPRL [Peptide 1843], the “reactivity as restimulating peptide in IFN-gamma ELIspot” value in test [1] (cells of HLA-B*0702 tg mice after single vaccination with Ipep 1506+IC31 or Ipep1835+IC31) is listed as “significant interferon-gamma induction”. In addition, the figures for the “specific INF-γ producing T cells / HLA-B*0702 epitope in HLA-B*0702 transgenic mice (in words)” value in test [1] and in test [1] (listed as Ipep 1843) were “minimal HLA-B*0702 epitopes” and “HLA-B*0702 minimal epitope”, respectively.

On to “DPRHRSRNVGKVIDTLTCGFADLMGYIPVVGAPLGG [Peptide 1649]”, for which, in test [3], the “immunogenicity in HLA-DRB1*0401 transgenic mice (in words)” value is on record as “immunogenicity” and the “Immunogenicity, peptide-specific IFN-gamma-producing cells, DRB1*0401” value is “+ (immunogenic (+, less than 100 peptide-specific cells among a million splenocytes))”.

Take GEVQVLSTVTQSFLGT [Peptide 1578]: the “Binding to DRB1 *0101” value in test [4] was “nb (no binding)”. For the same sequence, in test [1], the “Immunogenicity … B*0702” value is recorded as “+ (immunogenic (+, less than 100 peptide-specific cells among a million splenocytes))” and the “specific INF-γ producing T cells / HLA-B*0702 epitope in HLA-B*0702 transgenic mice (in words)” value was “HLA-B*0702 epitopes with T-cell activating capacity”. Further, in test [5], the “Binding to DRB1 *0401” value is listed as “* (weak binding)”.

SGHRMAWDMMMNWSPT [Peptide 1631]: in test [2], the “immunogenicity in HLA-A*0201 transgenic mice (in words)” value is on record as “immunogenicity” and the “Immunogenicity, peptide-specific IFN-gamma-producing cells, A*0201” value was “+ (immunogenic (+, less than 100 peptide-specific cells among a million splenocytes))”. For the same sequence, in test [4], the “Binding to DRB1 *0101” value is recorded as “nb (no binding)”. Besides, in test [3], the “immunogenicity in HLA-DRB1*0401 transgenic mice (in words)” value is “immunogenic” and the “Immunogenicity, peptide-specific IFN-gamma-producing cells, DRB1*0401” value was “+ (immunogenic (+, less than 100 peptide-specific cells among a million splenocytes))”.

Take LTPPHSAKSKYGYGAKEVR [Peptide 1616]: in test [3], the “immunogenicity in HLA-DRB1*0401 transgenic mice (in words)” value is given as “immunogenicity” and the “Immunogenicity, peptide-specific IFN-gamma-producing cells, DRB1*0401” value is listed as “+ (immunogenic (+, less than 100 peptide-specific cells among a million splenocytes))”.

In the case of “SGMFDSVVLCECYDAGAAWYELTPAETTVRLRAY [Peptide 1563]”, in test [1], the “Immunogenicity … B*0702” value is given as “+ (immunogenic (+, less than 100 peptide-specific cells among a million splenocytes))” and the “specific INF-γ producing T cells / HLA-B*0702 epitope in HLA-B*0702 transgenic mice (in words)” value is “HLA-B*0702 epitopes with T-cell activating capacity”. Besides, in test [3], the “immunogenicity in HLA-DRB1*0401 transgenic mice (in words)” value is on record as “immunogenicity” and the “Immunogenicity, peptide-specific IFN-gamma-producing cells, DRB1*0401” value was “+ (immunogenic (+, less than 100 peptide-specific cells among a million splenocytes))”.

Take LLFLLLADARVCACLWM [Peptide 1630]: in test [2], the “immunogenicity in HLA-A*0201 transgenic mice (in words)” value is “immunogenic” and the “Immunogenicity, peptide-specific IFN-gamma-producing cells, A*0201” value was “++ (strongly immunogenic (++, more than 100 peptide-specific cells among a million splenocytes))”. Further, the “Binding to DRB1 *0101” value in test [4] is listed as “* (weak binding)”. Moreover, in test [3], the “immunogenicity in HLA-DRB1*0401 transgenic mice (in words)” value is “immunogenic; also recorded: immunogenicity” and the “Immunogenicity, peptide-specific IFN-gamma-producing cells, DRB1*0401” value is “++ (strongly immunogenic (++, more than 100 peptide-specific cells among a million splenocytes))”. In addition, the “Binding to DRB1 *0404” value in test [6] is recorded as “nb (no binding)”.

Turning to “VNLLPGILSPGALVVGVICAAILRRHVGPGEGAVQWMNRLIAFASRGNHVAPTHYV [Peptide 1587]”, in test [2], the “immunogenicity in HLA-A*0201 transgenic mice (in words)” value is “immunogenic” and the “Immunogenicity, peptide-specific IFN-gamma-producing cells, A*0201” value is given as “+ (immunogenic (+, less than 100 peptide-specific cells among a million splenocytes))”. Further, in test [1], the “Immunogenicity … B*0702” value is on record as “+ (immunogenic (+, less than 100 peptide-specific cells among a million splenocytes))” and the “specific INF-γ producing T cells / HLA-B*0702 epitope in HLA-B*0702 transgenic mice (in words)” value is reported as “confirmed to contain human HLA-B*0702 epitopes; also recorded: HLA-B*0702 epitopes with T-cell activating capacity”.

Take FSDNSTPPAVPQTYQV [Peptide 1580]: in test [1], the “Immunogenicity … B*0702” value is “+ (immunogenic (+, less than 100 peptide-specific cells among a million splenocytes))” and the “specific INF-γ producing T cells / HLA-B*0702 epitope in HLA-B*0702 transgenic mice (in words)” value was “HLA-B*0702 epitopes with T-cell activating capacity”.

In the case of LEDRDRSQLSPLLHSTTEW [Peptide 1625], in test [3], the “immunogenicity in HLA-DRB1*0401 transgenic mice (in words)” value was “immunogenicity” and the “Immunogenicity, peptide-specific IFN-gamma-producing cells, DRB1*0401” value is “+ (immunogenic (+, less than 100 peptide-specific cells among a million splenocytes))”.

Turning to “ARALAHGVRVLEDGVNYATGNLPGCSFSIFLLALLSC [Peptide 1647]”, in test [2], the “immunogenicity in HLA-A*0201 transgenic mice (in words)” value was “immunogenicity” and the “Immunogenicity, peptide-specific IFN-gamma-producing cells, A*0201” value is “+ (immunogenic (+, less than 100 peptide-specific cells among a million splenocytes))”. Moreover, in test [1], the “Immunogenicity … B*0702” value is recorded as “+ (immunogenic (+, less than 100 peptide-specific cells among a million splenocytes))” and the “specific INF-γ producing T cells / HLA-B*0702 epitope in HLA-B*0702 transgenic mice (in words)” value is reported as “HLA-B*0702 epitopes with T-cell activating capacity”.

“GAAVGSICLGKVLVDILAGYGAGVAGALVAFKIMSGE [Peptide 1553]”: in test [2], the “immunogenicity in HLA-A*0201 transgenic mice (in words)” value is reported as “immunogenic” and the “Immunogenicity, peptide-specific IFN-gamma-producing cells, A*0201” value was “+ (immunogenic (+, less than 100 peptide-specific cells among a million splenocytes))”. In test [1], the “Immunogenicity … B*0702” value was “+ (immunogenic (+, less than 100 peptide-specific cells among a million splenocytes))” and the “specific INF-γ producing T cells / HLA-B*0702 epitope in HLA-B*0702 transgenic mice (in words)” value is recorded as “HLA-B*0702 epitopes with T-cell activating capacity”.

For the origin of these results see patent US7378234B2, “Method for isolating hepatitis C virus peptides” (Intercell AG, priority 2002, dated 2008).
